The values below come from paper PMC5911580, “YL143, a novel mutant selective irreversible EGFR inhibitor, overcomes EGFR^L858R, T790M‐mutant resistance in vitro and in vivo” (Cancer Medicine, 2018).

One data set concerns BaF3. The data set can be described thus: CCK-8 assay, BaF3 cells. Type of data set: cell-based. The following applies: Mus musculus, AV±SD, read-out: anti-proliferative activity BaF3. On the procedure:
(§1) Cells were seeded into 96‐well plates at a density of 1500~3000/well in complete medium overnight. Then, cells were treated with various concentrations (0.01~1000 nmol/L) of YL143 for additional 3 days. Viable cell numbers were determined by Cell Counting Kit 8 (CCK8, CK04, Dojindo Laboratories, Japan). Each assay consisted of three replicate wells and repeated at least three times. […] Each IC50 value was expressed as mean ± SD.
(§2) The anti-proliferative activities of the compounds were evaluated using CCK-8 assay. The data were means from at least four independent experiments.

A further data set concerns the target IR (Homo sapiens, UniProt P06213). As to the kind of experiment: FRET-based Z'-Lyte kinase assay, IR. Type of data set: biochemical. The following applies: AV ± SD; 1.5 h incubation. On the procedure: (§3) The kinase activity assay was performed and optimized according to the instructions of Z’‐LYTE™ kinase assay kits from the manufacturer (PV4879, Life, America). In our experiments, 10 concentration gradients from 0.01 nmol/L to 1.0 μmol/L were used for all the compounds.

The test system of data set [1] is H1975 (EGFR^L858R/T790M) cells. The data set can be described thus: CCK-8 cell growth assay, H1975. Type of data set: cell-based. Conditions: Homo sapiens, read-out: antiproliferative IC50 H1975. On the procedure: as §1
Data set [2] relates to HCC827 (EGFR^del 19) cells. As to the kind of experiment: CCK-8 cell growth assay, HCC827. The format is cell-based. Conditions: Homo sapiens, read-out: antiproliferative IC50 HCC827. The protocol: as §1
The conditions of data set [3]: cited from earlier work; for median progression-free survival (PFS): patients with NSCLC with EGFR^L858R or EGFR^del19, improved from 4.6.
The next data set has as its target IGF1R (Homo sapiens, UniProt P08069). As to the kind of experiment: FRET-based Z'-Lyte kinase assay, IGF1R. The format is biochemical. Conditions: AV ± SD; 1.5 h incubation. The protocol:
as §3

The test system of the next data set is A431 (EGFR^WT) cells. As to the kind of experiment: CCK-8 cell growth assay, A431. The format is cell-based. The following applies: Homo sapiens, read-out: antiproliferative IC50 A431. The protocol: as §1
For the next data set, the system named is BaF3-EGFR ^L858R. The data set can be described thus: CCK-8 assay, BaF3-EGFR L858R stable cells. Type of data set: cell-based. Conditions: Ba/F3 EGFR-L858R, read-out: anti-proliferative activity BaF3-EGFR L858R. On the procedure:
as §1, §2

The next data set deals with A549 (EGFR^WT) cells. As to the kind of experiment: CCK-8 cell growth assay, A549. The format is cell-based. Conditions: Homo sapiens, read-out: antiproliferative IC50 A549. The protocol:
as §1

For data set [4] the following is noted: cited from earlier work.

SMILES strings stand for the structures. Where two headings read alike, the source gives them in different places.

IGF1R, sequence (P08069 31-1367, species assumed): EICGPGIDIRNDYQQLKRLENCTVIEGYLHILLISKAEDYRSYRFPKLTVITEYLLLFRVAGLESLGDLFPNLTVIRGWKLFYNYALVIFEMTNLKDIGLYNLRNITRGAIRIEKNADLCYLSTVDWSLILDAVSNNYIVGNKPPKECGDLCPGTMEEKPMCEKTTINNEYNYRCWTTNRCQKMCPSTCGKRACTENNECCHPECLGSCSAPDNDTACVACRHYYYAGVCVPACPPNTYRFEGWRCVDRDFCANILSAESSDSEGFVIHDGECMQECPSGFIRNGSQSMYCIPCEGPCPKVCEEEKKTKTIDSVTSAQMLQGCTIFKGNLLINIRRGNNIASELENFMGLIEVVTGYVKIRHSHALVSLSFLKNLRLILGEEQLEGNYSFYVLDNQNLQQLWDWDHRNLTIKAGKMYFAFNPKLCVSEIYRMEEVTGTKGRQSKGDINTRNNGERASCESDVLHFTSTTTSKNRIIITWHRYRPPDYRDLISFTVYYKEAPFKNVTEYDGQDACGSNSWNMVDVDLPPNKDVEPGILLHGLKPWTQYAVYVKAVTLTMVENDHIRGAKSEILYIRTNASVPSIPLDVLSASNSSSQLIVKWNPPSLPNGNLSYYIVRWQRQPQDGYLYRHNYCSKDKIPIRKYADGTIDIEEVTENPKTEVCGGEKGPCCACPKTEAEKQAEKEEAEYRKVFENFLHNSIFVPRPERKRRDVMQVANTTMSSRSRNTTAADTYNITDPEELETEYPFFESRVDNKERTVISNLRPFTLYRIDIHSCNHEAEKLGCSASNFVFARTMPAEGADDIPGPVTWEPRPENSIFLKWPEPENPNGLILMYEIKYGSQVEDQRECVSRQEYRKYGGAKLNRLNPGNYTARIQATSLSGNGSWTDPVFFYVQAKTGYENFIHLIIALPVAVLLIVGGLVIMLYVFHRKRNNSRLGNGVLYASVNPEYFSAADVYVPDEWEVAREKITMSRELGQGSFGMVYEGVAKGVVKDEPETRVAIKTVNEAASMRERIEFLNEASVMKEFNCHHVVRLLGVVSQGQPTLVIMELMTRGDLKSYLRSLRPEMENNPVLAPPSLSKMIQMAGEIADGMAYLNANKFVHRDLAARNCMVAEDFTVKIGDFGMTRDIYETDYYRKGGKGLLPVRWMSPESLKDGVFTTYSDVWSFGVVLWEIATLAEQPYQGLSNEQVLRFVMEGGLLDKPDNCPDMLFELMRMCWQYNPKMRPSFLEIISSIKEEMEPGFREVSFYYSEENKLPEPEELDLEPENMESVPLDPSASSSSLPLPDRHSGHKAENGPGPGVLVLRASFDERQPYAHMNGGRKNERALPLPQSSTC
IR, sequence (P06213 28-1382): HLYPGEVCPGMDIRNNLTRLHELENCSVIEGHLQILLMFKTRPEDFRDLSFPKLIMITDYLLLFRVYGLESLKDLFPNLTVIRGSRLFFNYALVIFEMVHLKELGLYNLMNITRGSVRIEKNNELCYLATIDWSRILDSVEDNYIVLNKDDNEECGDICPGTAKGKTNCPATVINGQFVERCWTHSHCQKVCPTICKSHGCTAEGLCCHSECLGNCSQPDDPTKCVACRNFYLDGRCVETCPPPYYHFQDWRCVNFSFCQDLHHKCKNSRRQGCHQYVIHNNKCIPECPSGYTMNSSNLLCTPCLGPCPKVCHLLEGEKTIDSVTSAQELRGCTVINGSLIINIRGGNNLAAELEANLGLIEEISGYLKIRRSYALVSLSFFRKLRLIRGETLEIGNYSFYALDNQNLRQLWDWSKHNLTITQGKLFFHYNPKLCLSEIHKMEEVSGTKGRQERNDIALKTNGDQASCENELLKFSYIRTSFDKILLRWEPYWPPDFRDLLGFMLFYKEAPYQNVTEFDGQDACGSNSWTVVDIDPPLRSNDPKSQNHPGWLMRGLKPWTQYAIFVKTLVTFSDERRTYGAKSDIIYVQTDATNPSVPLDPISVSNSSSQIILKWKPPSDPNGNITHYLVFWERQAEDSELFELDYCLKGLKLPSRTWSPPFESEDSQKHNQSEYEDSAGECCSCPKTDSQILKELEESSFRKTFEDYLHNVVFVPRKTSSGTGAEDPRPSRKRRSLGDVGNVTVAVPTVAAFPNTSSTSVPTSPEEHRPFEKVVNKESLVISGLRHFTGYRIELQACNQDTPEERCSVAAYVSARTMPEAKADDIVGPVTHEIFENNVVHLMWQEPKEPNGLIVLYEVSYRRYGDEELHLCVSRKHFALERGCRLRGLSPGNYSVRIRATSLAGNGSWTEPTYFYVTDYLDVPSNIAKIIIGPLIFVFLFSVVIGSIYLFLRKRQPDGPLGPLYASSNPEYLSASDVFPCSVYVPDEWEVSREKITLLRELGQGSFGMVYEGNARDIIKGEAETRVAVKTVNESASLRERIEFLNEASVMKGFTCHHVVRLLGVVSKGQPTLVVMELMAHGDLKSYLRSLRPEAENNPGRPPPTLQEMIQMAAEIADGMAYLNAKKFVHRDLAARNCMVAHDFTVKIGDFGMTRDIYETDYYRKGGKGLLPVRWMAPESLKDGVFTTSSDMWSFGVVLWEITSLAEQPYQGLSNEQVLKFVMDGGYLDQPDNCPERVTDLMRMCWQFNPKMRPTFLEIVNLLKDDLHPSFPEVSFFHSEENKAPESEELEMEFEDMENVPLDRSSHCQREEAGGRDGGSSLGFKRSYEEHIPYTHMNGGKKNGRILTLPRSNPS

In the case of `C=CC(=O)Nc1cc(Nc2nccc(-c3cn(C)c4ccccc34)n2)c(OC)cc1N(C)CCN(C)C` [AZD9291, Osimertinib], the IC50 was 6.17 ± 2.98 µM in the data set on BaF3; 0.235 µM against IR; 0.0403 ± 0.0166 µM in data set [1] (NCI-H1975, 72 h); 0.0039 ± 0.0035 µM in [2] (HCC827, 72 h); 0.277 µM against IGF1R; […] in the data set on A431 (EGFR^WT) cells (A-431, 72 h). Further, the IC50 in the data set on BaF3-EGFR ^L858R was 0.024 ± 0.025 µM; with A549 (EGFR^WT) cells (A549, 72 h), […]. The “PFS (progression-free survival)” value in data set [3] (improved from 10.2) is given as 18.9 months.
As to `C=CC(=O)Nc1cccc(Nc2nc(Nc3ccc(N4CCN(C(C)=O)CC4)cc3OC)ncc2C(F)(F)F)c1` [CO1686, Rociletinib], the IC50 with BaF3 is 2.34 ± 1.66 µM; on IR, 0.0128 ± 0.0008 µM; in data set [1] (NCI-H1975, CCK-8, 72 h, AV ± SD), 0.0418 ± 0.0251 µM; in data set [2] (HCC827, CCK-8, 72 h, AV ± SD), 0.0672 ± 0.0195 µM; against IGF1R it was 0.0475 ± 0.0084 µM; in the data set with A431 (EGFR^WT) cells (A-431, CCK-8, 72 h), > 1 µM. In addition, the IC50 is 0.069 ± 0.048 µM in the data set with BaF3-EGFR ^L858R (CCK-8, AV±SD) and > 1 µM in the data set on A549 (EGFR^WT) cells (A549, CCK-8, 72 h). Moreover, the hyperglycemia entry in data set [4] (clinical investigation) is listed as “about 40 % patients”; in [4] (patients, clinical study) it was 47%.
As to `C#Cc1cccc(Nc2ncnc3cc(OCCOC)c(OCCOC)cc23)c1` [erlotinib], the “median progression-free survival (PFS)” value in data set [3] is recorded as 13.1 months.
In the case of `COc1cc2ncnc(Nc3ccc(F)c(Cl)c3)c2cc1OCCCN1CCOCC1` [Gefitinib], the “median progression-free survival (PFS)” value in [3] is 13.1 months.
